Experimental data from publication PMC5988656, “Phase I studies of AZD1208, a proviral integration Moloney virus kinase inhibitor in solid and haematological cancers” (British Journal of Cancer, 2018).

Test system: patients with advanced solid tumours
Assay: Solid tumour dose-escalation study: safety and tolerability (AEs, DLTs)
Description: Conducted at two UK centres and one in Japan. Dose escalation followed a rolling six design.[14] Patients received a single dose on Day 1 during Cycle 0, followed by a 3-day washout period, after which multiple dosing was initiated. Cycle 1 was a 21-day period from the first dose of multiple dosing.
The CTCAE (version 4.0) was utilised to grade all AE events.
AEs were summarised by Medical Dictionary for Regulatory Activities (MedDRA) system organ class, MedDRA preferred term and CTCAE grade. Summary statistics of mean, median, standard deviation, minimum, maximum and number of observations were used.

N[C@@H]1CCCN(c2c(/C=C3\SC(=O)NC3=O)cccc2-c2ccccc2)C1 [AZD1208]
Abdominal pain (all-grade AE) (120 mg, n = 3): 0 (0.0) n (%) | Anaemia (all-grade AE) (120 mg, n = 3): 3 (100.0) n (%) | Constipation (all-grade AE) (120 mg, n = 3): 0 (0.0) n (%) | Decreased appetite (all-grade AE) (120 mg, n = 3): 1 (33.3) n (%) | Diarrhoea (all-grade AE) (120 mg, n = 3): 2 (66.7) n (%) | Dry skin (all-grade AE) (120 mg, n = 3): 0 (0.0) n (%) | Dyspnoea (all-grade AE) (120 mg, n = 3): 0 (0.0) n (%) | Fatigue (all-grade AE) (120 mg, n = 3): 0 (0.0) n (%) | GGT increased (all-grade AE) (120 mg, n = 3): 0 (0.0) n (%) | Hyperglycaemia (all-grade AE) (120 mg, n = 3): 1 (33.3) n (%) | Hypoalbuminaemia (all-grade AE) (120 mg, n = 3): 1 (33.3) n (%) | Hypokalaemia (all-grade AE) (120 mg, n = 3): 0 (0.0) n (%) | Hyponatraemia (all-grade AE) (120 mg, n = 3): 0 (0.0) n (%) | Insomnia (all-grade AE) (120 mg, n = 3): 0 (0.0) n (%) | Musculoskeletal chest pain (all-grade AE) (120 mg, n = 3): 0 (0.0) n (%) | Nausea (all-grade AE) (120 mg, n = 3): 1 (33.3) n (%) | Patients with any AE (all-grade AE) (120 mg, n = 3): 3 (100.0) n (%) | Platelet count decreased (all-grade AE) (120 mg, n = 3): 2 (66.7) n (%) | Pyrexia (all-grade AE) (120 mg, n = 3): 0 (0.0) n (%) | Thrombocytopenia (all-grade AE) (120 mg, n = 3): 0 (0.0) n (%) | Vomiting (all-grade AE) (120 mg, n = 3): 0 (0.0) n (%) | White blood cell count decreased (all-grade AE) (120 mg, n = 3): 2 (66.7) n (%) | Patients requiring dose interruptions because of AEs (240 mg): 2 n | Patients with CTCAE grade ≥3 AEs causally related to AZD1208 (240 mg (anaemia, alanine transaminase increased, GGT increased)): 3 n | Abdominal pain (all-grade AE) (240 mg, n = 7): 3 (42.9) n (%) | Anaemia (all-grade AE) (240 mg, n = 7): 4 (57.1) n (%) | Constipation (all-grade AE) (240 mg, n = 7): 0 (0.0) n (%) | DLT detail, action taken (240 mg, n = 7): GGT increased, drug interrupted | Decreased appetite (all-grade AE) (240 mg, n = 7): 3 (42.9) n (%) | Diarrhoea (all-grade AE) (240 mg, n = 7): 5 (71.4) n (%) | Dry skin (all-grade AE) (240 mg, n = 7): 3 (42.9) n (%) | Dyspnoea (all-grade AE) (240 mg, n = 7): 1 (14.3) n (%) | Fatigue (all-grade AE) (240 mg, n = 7): 2 (28.6) n (%) | GGT increased (all-grade AE) (240 mg, n = 7): 2 (28.6) n (%) | Hyperglycaemia (all-grade AE) (240 mg, n = 7): 0 (0.0) n (%) | Hypoalbuminaemia (all-grade AE) (240 mg, n = 7): 2 (28.6) n (%) | Hypokalaemia (all-grade AE) (240 mg, n = 7): 0 (0.0) n (%) | Hyponatraemia (all-grade AE) (240 mg, n = 7): 0 (0.0) n (%) | Insomnia (all-grade AE) (240 mg, n = 7): 1 (14.3) n (%) | Musculoskeletal chest pain (all-grade AE) (240 mg, n = 7): 0 (0.0) n (%) | Nausea (all-grade AE) (240 mg, n = 7): 6 (85.7) n (%) | Patients with any AE (all-grade AE) (240 mg, n = 7): 7 (100.0) n (%) | Platelet count decreased (all-grade AE) (240 mg, n = 7): 2 (28.6) n (%) | Pyrexia (all-grade AE) (240 mg, n = 7): 1 (14.3) n (%) | Thrombocytopenia (all-grade AE) (240 mg, n = 7): 0 (0.0) n (%) | Vomiting (all-grade AE) (240 mg, n = 7): 6 (85.7) n (%) | White blood cell count decreased (all-grade AE) (240 mg, n = 7): 3 (42.9) n (%) | Patients requiring dose interruptions because of AEs (360 mg): 3 n | Patients with CTCAE grade ≥3 AEs causally related to AZD1208 (360 mg (lymphocyte decreased)): 1 n | Abdominal pain (all-grade AE) (360 mg, n = 6): 2 (33.3) n (%) | Anaemia (all-grade AE) (360 mg, n = 6): 2 (33.3) n (%) | Constipation (all-grade AE) (360 mg, n = 6): 3 (50.0) n (%) | Decreased appetite (all-grade AE) (360 mg, n = 6): 2 (33.3) n (%) | Diarrhoea (all-grade AE) (360 mg, n = 6): 5 (83.3) n (%) | Dry skin (all-grade AE) (360 mg, n = 6): 1 (16.7) n (%) | Dyspnoea (all-grade AE) (360 mg, n = 6): 2 (33.3) n (%) | Fatigue (all-grade AE) (360 mg, n = 6): 3 (50.0) n (%) | GGT increased (all-grade AE) (360 mg, n = 6): 1 (16.7) n (%) | Hyperglycaemia (all-grade AE) (360 mg, n = 6): 1 (16.7) n (%) | Hypoalbuminaemia (all-grade AE) (360 mg, n = 6): 2 (33.3) n (%) | Hypokalaemia (all-grade AE) (360 mg, n = 6): 0 (0.0) n (%) | Hyponatraemia (all-grade AE) (360 mg, n = 6): 1 (16.7) n (%) | Insomnia (all-grade AE) (360 mg, n = 6): 1 (16.7) n (%) | Musculoskeletal chest pain (all-grade AE) (360 mg, n = 6): 2 (33.3) n (%) | Nausea (all-grade AE) (360 mg, n = 6): 3 (50.0) n (%) | Patients with any AE (all-grade AE) (360 mg, n = 6): 6 (100.0) n (%) | Platelet count decreased (all-grade AE) (360 mg, n = 6): 1 (16.7) n (%) | Pyrexia (all-grade AE) (360 mg, n = 6): 3 (50.0) n (%) | Thrombocytopenia (all-grade AE) (360 mg, n = 6): 2 (33.3) n (%) | Vomiting (all-grade AE) (360 mg, n = 6): 1 (16.7) n (%) | White blood cell count decreased (all-grade AE) (360 mg, n = 6): 1 (16.7) n (%) | Patients requiring dose interruptions because of AEs (540 mg): 6 n | Patients with CTCAE grade ≥3 AEs causally related to AZD1208 (540 mg (vomiting, fatigue, lethargy)): 2 n | Abdominal pain (all-grade AE) (540 mg, n = 7): 2 (28.6) n (%) | Anaemia (all-grade AE) (540 mg, n = 7): 4 (57.1) n (%) | Constipation (all-grade AE) (540 mg, n = 7): 0 (0.0) n (%) | DLT detail, action taken (540 mg, n = 7): Vomiting, drug permanently discontinued | Decreased appetite (all-grade AE) (540 mg, n = 7): 4 (57.1) n (%) | Diarrhoea (all-grade AE) (540 mg, n = 7): 6 (85.7) n (%) | Dry skin (all-grade AE) (540 mg, n = 7): 2 (28.6) n (%) | Dyspnoea (all-grade AE) (540 mg, n = 7): 1 (14.3) n (%) | Fatigue (all-grade AE) (540 mg, n = 7): 3 (42.9) n (%) | GGT increased (all-grade AE) (540 mg, n = 7): 2 (28.6) n (%) | Hyperglycaemia (all-grade AE) (540 mg, n = 7): 4 (57.1) n (%) | Hypoalbuminaemia (all-grade AE) (540 mg, n = 7): 1 (14.3) n (%) | Hypokalaemia (all-grade AE) (540 mg, n = 7): 2 (28.6) n (%) | Hyponatraemia (all-grade AE) (540 mg, n = 7): 3 (42.9) n (%) | Insomnia (all-grade AE) (540 mg, n = 7): 1 (14.3) n (%) | Musculoskeletal chest pain (all-grade AE) (540 mg, n = 7): 1 (14.3) n (%) | Nausea (all-grade AE) (540 mg, n = 7): 7 (100.0) n (%) | Patients with any AE (all-grade AE) (540 mg, n = 7): 7 (100.0) n (%) | Platelet count decreased (all-grade AE) (540 mg, n = 7): 2 (28.6) n (%) | Pyrexia (all-grade AE) (540 mg, n = 7): 0 (0.0) n (%) | Thrombocytopenia (all-grade AE) (540 mg, n = 7): 1 (14.3) n (%) | Vomiting (all-grade AE) (540 mg, n = 7): 5 (71.4) n (%)
